# From PubChem BioAssay AID504897 (Southern Research Specialized Biocontainment Screening …, 2011)
# Activity calls are given as the source filed them. No rule for the calls is given here.
# Legend:
# [1] = test system: Mycobacterium tuberculosis H37Rv growth inhibition, 7H9 medium; test: M. tuberculosis growth inhibition, dose response, H37Rv, 7H9 media, purified and synthesized compounds, set 6 (AID 504897); details: for IC50: measured here: IC50 of Mtb growth inhibition
# [2] = as above; details: Mycobacterium tuberculosis H37Rv growth inhibition, 7H9 medium; at 100 µM (top of the series)
Compound,IC50 [1],inhibition [2],IC90 [1]
COC(=O)c1ccc(CNc2c(N3CCCC3)c(=O)c2=O)cc1,> 100 µM,,
Cc1nc(SCC(N)=O)[nH]c(=O)c1C,,-2.86% (inactive),
O=C(CSc1ncccn1)NC1CCCCC1,,-0.52% (inactive),
Cc1[nH]c2ccccc2c1C(=O)COC(=O)c1ccc([N+](=O)[O-])s1,> 67.4 µM,,
Cc1c[nH]c(=S)[nH]c1=O,,-0.98% (inactive),
CC(Sc1nc2ccccc2c(=O)[nH]1)C(=O)NC1CCCCC1 (centres undefined),,-1.17% (inactive),
Cn1c(SCC(=O)NC2CCCCC2)nc2ccccc2c1=O,,-2.65% (inactive),
CCOC(=O)CSc1nc(C)c(C)c(=O)[nH]1,,3.07% (inactive),
CCOC1OC(=O)C(Cl)=C1Nc1ccccc1C (centres undefined),3.22 µM,,5.92 µM
CCCCNC(=O)CSc1nc2ccccc2c(=O)[nH]1,0.055 µM,,1.21 µM
Cc1cc(C)n2nc(N)c(N=Nc3ccccc3)c2n1,4.94 µM,,6.01 µM
c1ccc(/N=C2\N=C(Nc3ccccn3)c3ccccc32)nc1,1.18 µM,,1.76 µM
O=C(CSc1nc2ccccc2c(=O)[nH]1)NCc1ccc(Cl)cc1,0.554 µM,,0.973 µM
CCC(Sc1nc2ccccc2c(=O)[nH]1)C(=O)NC1CCCCC1 (centres undefined),,1.35% (inactive),
Cc1ccc(NC(=O)COC(=O)CCc2c[nH]c3ccccc23)cc1[N+](=O)[O-],1.34 µM,,4.37 µM
CC(C)CCNC(=O)CSc1nc2c(c(=O)[nH]1)CCC2,0.722 µM,,0.947 µM
Cc1cc(=O)[nH]c(=S)[nH]1,,-3.5% (inactive),
CN(C)C(=O)CSc1nc2ccccc2c(=O)[nH]1,,0.96% (inactive),
NC(=O)c1cnccn1,> 100 µM,,
CN(C(=O)CSc1nc2ccccc2c(=O)[nH]1)C1CCCCC1,,-1.28% (inactive),
O=C(CSc1ccccn1)NC1CCCCC1,> 100 µM,,
NC(=O)CSc1nc2ccccc2c(=O)[nH]1,,3.52% (inactive),
CNC(=O)CSc1nc2ccccc2c(=O)[nH]1,43.9 µM,,68.1 µM

Compound,IC50 [1],inhibition [2],IC90 [1]
Cc1cccc(/C=C/C(=O)c2ccc([N+](=O)[O-])o2)c1,0.495 µM,,0.938 µM
CC[N+](C)(CC)CCCCOc1ccc2c(c1)C(=O)c1cc(OCCCC[N+](C)(CC)CC)ccc1-2,1.77 µM,,2.65 µM
Cc1cc(=O)[nH]c(SCC(=O)NC2CCCCC2)n1,,0.97% (inactive),
NC[C@H]1O[C@H](O[C@H]2[C@H](O)[C@@H](O[C@H]3O[C@H](CO)[C@@H](O)[C@H](N)[C@H]3O)[C@H](N)C[C@@H]2N)[C@H](O)[C@@H](O)[C@@H]1O,1.39 µM,,2.12 µM
CC1CCN(C(=O)C2CCN(c3nnc(-n4cccc4)s3)CC2)CC1,2.75 µM,,3.9 µM
CN1CCC(NC(=O)CSc2nc3ccccc3c(=O)[nH]2)CC1,,-4.24% (inactive),
O=c1[nH]c(SCc2ccccc2Cl)nc2c1CCCC2,,1.13% (inactive),
CC1CCN(C(=O)CSc2nc3ccccc3c(=O)[nH]2)CC1,,3.89% (inactive),
Cc1nc(SCc2ccccc2Cl)[nH]c(=O)c1C,,-10.5% (inactive),
COC(=O)C(C)Oc1ccc(Cc2ncc(C(F)(F)F)cc2Cl)cc1 (centres undefined),3.5 µM,,6.75 µM
Cc1[nH]c(=S)[nH]c(=O)c1C,,-0.2% (inactive),
CCC(Sc1nc2ccccc2c(=O)[nH]1)C(=O)Nc1cccc(OC)c1 (centres undefined),,4.58% (inactive),
COc1c(N2CCNC(C)C2)c(F)cc2c(=O)c(C(=O)O)cn(C3CC3)c12 (centres undefined),0.113 µM,,0.162 µM
NNC(=O)c1ccncc1,0.175 µM,,0.294 µM
Cc1cc(Br)ccc1NC(=O)c1cnc(N2CCN(c3ccccn3)CC2)c2ccccc12,0.887 µM,,2.79 µM
Cc1nc(SCC(=O)N(C)c2ccccc2)[nH]c(=O)c1C,,-3.37% (inactive),
COc1cccc(NC(=O)CSc2nc3c(c(=O)[nH]2)CCC3)c1,,-0.07% (inactive),
Cc1nc(SCC(=O)NC2CCCCC2)[nH]c(=O)c1C,< 0.006 µM,,1.32 µM
CCOc1ccc(-c2cc(C)[n+](CCc3ccc(OC)c(OC)c3)c(-c3ccc(OCC)cc3)c2)cc1,0.568 µM,,0.954 µM
CCC(Sc1nc2c(c(=O)[nH]1)CCC2)C(=O)Nc1cccc(OC)c1 (centres undefined),,1.68% (inactive),
CCCc1cc(C(N)=S)ccn1,7.24 µM,,
CC(C)N=c1cc2n(-c3ccc(Cl)cc3)c3ccccc3nc-2cc1Nc1ccc(Cl)cc1,0.067 µM,,0.396 µM
O=C(CSc1nc2ccccc2c(=O)[nH]1)NC1CCCC1,0.089 µM,,0.535 µM

Compound,IC50 [1],inhibition [2],IC90 [1]
COc1ccc(NC(=O)CSc2nc3ccccc3c(=O)[nH]2)cc1,,1.71% (inactive),
O=C(CSc1nc2ccccc2c(=O)[nH]1)N1CCOCC1,,6.74% (inactive),
CCSc1nc2ccccc2c(=O)[nH]1,,-6.01% (inactive),
O=C(CSc1nc2c(c(=O)[nH]1)CCCC2)NC1CCCCC1,< 0.037 µM,,0.081 µM
CC(C)NC(=O)CSc1nc2ccccc2c(=O)[nH]1,5.84 µM,,14.2 µM
Cc1cccc(-c2oc3ccc(-c4ccc5c(c4)OCO5)cc3c2C#Cc2cncn2C)c1,2.41 µM,,2.98 µM
O=C(CSc1nc2c(c(=O)[nH]1)CCC2)NC1CCCCC1,< 0.034 µM,,< 0.069 µM
CC(C)CNC(=O)CSc1nc2ccccc2c(=O)[nH]1,0.173 µM,,0.432 µM
Cc1ccc(C(=O)N/N=C(/CC(=O)c2cccs2)C(F)(F)F)cc1,1.93 µM,,3.1 µM
Cc1nc(SCC(=O)NCCC(C)C)[nH]c(=O)c1C,4.9 µM,,8.75 µM
Cc1cnc(SCC(=O)NC2CCCCC2)[nH]c1=O,,0.5% (inactive),
COc1cccc(NC(=O)CSc2nc3ccccc3c(=O)[nH]2)c1,,-3.46% (inactive),
COC(=O)C(Nc1nc(SCC(=O)NC2CCCCC2)nc2ccccc12)c1ccccc1 (centres undefined),,9.91% (inactive),
O=C(CSc1nccc(=O)[nH]1)NC1CCCCC1,,0.9% (inactive),
O=c1[nH]c(=S)[nH]c2ccccc12,,-4.69% (inactive),
Cc1nc(SCC(=O)NC2CCCC2)[nH]c(=O)c1C,5.12 µM,,8.89 µM
Nc1cc(=O)[nH]c(SCC(=O)NC2CCCCC2)n1,,-4.53% (inactive),
CC(C)CCNC(=O)CSc1nc2ccccc2c(=O)[nH]1,< 0.081 µM,,< 0.136 µM
Nc1c(C(=O)NC2CCCCC2)nsc1C(=O)OCC(=O)NC1CCCCC1,2.13 µM,,7.45 µM
CN[C@@H]1[C@H](O[C@H]2[C@H](O[C@H]3[C@H](O)[C@@H](O)[C@H](N=C(N)N)[C@@H](O)[C@@H]3N=C(N)N)O[C@@H](C)[C@]2(O)C=O)O[C@@H](CO)[C@H](O)[C@H]1O,0.101 µM,,0.176 µM
CCSc1nc(C)c(C)c(=O)[nH]1,,0.94% (inactive),
Cc1ccc(NC(=O)CSc2nc3ccccc3c(=O)[nH]2)cc1Cl,,-4.35% (inactive),
